Source: patent US9708308B2, “Factor IXa inhibitors” (Merck Sharp & Dohme Corp., priority 2012, dated 2017)

Biological target: Factor IXa (Homo sapiens, UniProt P00740)
Assay: Determination of inhibitory activity against Factor IXa (cleavage of fluorescent peptide substrate)
Type: biochemical
Details: cleavage of fluorescent peptide CH3SO2-D-CHG-Gly-Arg-AFC, release of AFC; read-out: FIXa IC50
Method in brief: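 Factor IXa activity followed via cleavage of CH3SO2-D-CHG-Gly-Arg-AFC, releasing AFC. Fluorescence read at excitation 405 nm, emission 510 nm.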

Factor IXa, sequence (P00740 227-461 limits assumed): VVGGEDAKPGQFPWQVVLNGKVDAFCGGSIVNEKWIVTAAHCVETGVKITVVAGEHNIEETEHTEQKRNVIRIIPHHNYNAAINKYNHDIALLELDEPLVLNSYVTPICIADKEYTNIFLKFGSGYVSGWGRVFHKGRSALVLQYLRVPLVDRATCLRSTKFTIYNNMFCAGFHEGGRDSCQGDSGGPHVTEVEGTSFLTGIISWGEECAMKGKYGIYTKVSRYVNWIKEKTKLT
Factor IXa, sequence (P00740 47-191 partner limits assumed): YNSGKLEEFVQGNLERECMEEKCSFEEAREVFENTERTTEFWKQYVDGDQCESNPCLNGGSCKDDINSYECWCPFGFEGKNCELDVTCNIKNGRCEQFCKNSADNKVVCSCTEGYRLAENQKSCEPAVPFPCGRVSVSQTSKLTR

Row | Compound | IC50 [nM]
1 | C[C@]1([C@@H](O)C(=O)Nc2ccc3c(N)noc3c2)OCCN(c2ccn(-c3cnnc(C#N)c3)n2)C1=O [Example 100, (R)—N-(3-aminobenzo[d]isoxazol-6-yl)-2-((R)-4-(1-(6-cyanopyridazin-4-yl)-1H-pyrazol-3-yl)-2-methyl-3-oxomorpholin-2-yl)-2-hydroxyacetamide] | 2.17
2 | COc1ncc(-n2ccc(N3CCO[C@](C)([C@@H](O)C(=O)Nc4ccc5c(N)noc5c4)C3=O)n2)cn1 [Example 101, (R)—N-(3-aminobenzo[d]isoxazol-6-yl)-2-hydroxy-2-((R)-4-(1-(2-methoxypyrimidin-5-yl)-1H-pyrazol-3-yl)-2-methyl-3-oxomorpholin-2-yl)acetamide] | 635
3 | C[C@]1([C@@H](O)C(=O)Nc2ccc3c(N)noc3c2)OCCN(c2ccn(-c3cnc(C(F)(F)F)nc3)n2)C1=O [Example 102, (R)—N-(3-aminobenzo[d]isoxazol-6-yl)-2-hydroxy-2-((R)-2-methyl-3-oxo-4-(1-(2-(trifluoromethyl)pyrimidin-5-yl)-1H-pyrazol-3-yl)morpholin-2-yl)acetamide] | 124
4 | COc1nccc(-n2ccc(N3CCO[C@](C)([C@@H](O)C(=O)Nc4ccc5c(N)noc5c4)C3=O)n2)n1 [Example 103, (R)—N-(3-aminobenzo[d]isoxazol-6-yl)-2-hydroxy-2-((R)-4-(1-(2-methoxypyrimidin-4-yl)-1H-pyrazol-3-yl)-2-methyl-3-oxomorpholin-2-yl)acetamide] | 10.8
5 | Cc1cc(N2CCO[C@](C)([C@@H](O)C(=O)Nc3ccc4c(N)noc4c3)C2=O)nn1C1CC1 [Example 104, (R)—N-(3-aminobenzo[d]isoxazol-6-yl)-2-((R)-4-(1-cyclopropyl-5-methyl-1H-pyrazol-3-yl)-2-methyl-3-oxomorpholin-2-yl)-2-hydroxyacetamide] | 401
6 | C[C@]1([C@@H](O)C(=O)Nc2ccc3c(N)noc3c2)OCCN(c2nc(-c3ccncc3)co2)C1=O [Example 105, (R)—N-(3-aminobenzo[d]isoxazol-6-yl)-2-hydroxy-2-((R)-2-methyl-3-oxo-4-(4-(pyridin-4-yl)oxazol-2-yl)morpholin-2-yl)acetamide] | 97.9
7 | C[C@]1([C@@H](O)C(=O)Nc2ccc3c(N)noc3c2)OCCN(c2cccc(OC3CCOCC3)n2)C1=O [Example 108, (R)—N-(3-aminobenzo[d]isoxazol-6-yl)-2-hydroxy-2-((R)-2-methyl-3-oxo-4-(6-((tetrahydro-2H-pyran-4-yl)oxy)pyridin-2-yl)morpholin-2-yl)acetamide] | 370
8 | C[C@]1([C@@H](O)C(=O)Nc2ccc3c(N)noc3c2)OCCN(c2cccc(-c3ccc(OC(F)(F)F)cc3)n2)C1=O [Example 109, (R)—N-(3-aminobenzo[d]isoxazol-6-yl)-2-hydroxy-2-((R)-2-methyl-3-oxo-4-(6-(4-(trifluoromethoxy)phenyl)pyridin-2-yl)morpholin-2-yl)acetamide] | 380
9 | C[C@]1([C@@H](O)C(=O)Nc2ccc3c(N)noc3c2)OCCN(c2cccc(-c3ccc(C(=O)O)cc3)n2)C1=O [Example 110, 4-(6-((R)-2-((R)-2-((3-aminobenzo[d]isoxazol-6-yl)amino)-1-hydroxy-2-oxoethyl)-2-methyl-3-oxomorpholino)pyridin-2-yl)benzoic acid] | 455
10 | C[C@]1([C@@H](O)C(=O)Nc2ccc3c(N)noc3c2)OCCN(c2cccc(-c3ccc(C(F)(F)F)cc3C(=O)O)n2)C1=O [Example 111, 2-(6-((R)-2-((R)-2-((3-aminobenzo[d]isoxazol-6-yl)amino)-1-hydroxy-2-oxoethyl)-2-methyl-3-oxomorpholino)pyridin-2-yl)-5-(trifluoromethyl)benzoic acid] | 972
11 | C[C@]1([C@@H](O)C(=O)Nc2ccc3c(N)noc3c2)OCCN(c2cccc(-c3ccnnc3)n2)C1=O [Example 112, (R)—N-(3-aminobenzo[d]isoxazol-6-yl)-2-hydroxy-2-((R)-2-methyl-3-oxo-4-(6-(pyridazin-4-yl)pyridin-2-yl)morpholin-2-yl)acetamide] | 41.6
12 | C[C@]1([C@@H](O)C(=O)Nc2ccc3c(N)noc3c2)OCCN(c2cccc(-c3cnc(C(F)(F)F)nc3)n2)C1=O [Example 113, (R)—N-(3-aminobenzo[d]isoxazol-6-yl)-2-hydroxy-2-((R)-2-methyl-3-oxo-4-(6-(2-(trifluoromethyl)pyrimidin-5-yl)pyridin-2-yl)morpholin-2-yl)acetamide] | 464
13 | C[C@]1([C@@H](O)C(=O)Nc2ccc3c(N)noc3c2)OCCN(c2cccc(-c3cnoc3)n2)C1=O [Example 114, (R)—N-(3-aminobenzo[d]isoxazol-6-yl)-2-hydroxy-2-((R)-4-(6-(isoxazol-4-yl)pyridin-2-yl)-2-methyl-3-oxomorpholin-2-yl)acetamide] | 45.3
14 | Cc1nocc1-c1cccc(N2CCO[C@](C)([C@@H](O)C(=O)Nc3ccc4c(N)noc4c3)C2=O)n1 [Example 115, (R)—N-(3-aminobenzo[d]isoxazol-6-yl)-2-hydroxy-2-((R)-2-methyl-4-(6-(3-methylisoxazol-4-yl)pyridin-2-yl)-3-oxomorpholin-2-yl)acetamide] | 68.2
15 | Cc1noc(C)c1-c1cccc(N2CCO[C@](C)([C@@H](O)C(=O)Nc3ccc4c(N)noc4c3)C2=O)n1 [Example 116, (R)—N-(3-aminobenzo[d]isoxazol-6-yl)-2-((R)-4-(6-(3,5-dimethylisoxazol-4-yl)pyridin-2-yl)-2-methyl-3-oxomorpholin-2-yl)-2-hydroxyacetamide] | 93.5
16 | C[C@]1([C@@H](O)C(=O)Nc2ccc3c(N)noc3c2)OCCN(c2ccc3ccncc3n2)C1=O [Example 117, (R)—N-(3-aminobenzo[d]isoxazol-6-yl)-2-hydroxy-2-((R)-2-methyl-4-(1,7-naphthyridin-2-yl)-3-oxomorpholin-2-yl)acetamide] | 544
17 | C[C@]1([C@@H](O)C(=O)Nc2ccc3c(N)noc3c2)OCCN(c2ccc3cc(C(F)(F)F)ncc3n2)C1=O [Example 118, (R)—N-(3-aminobenzo[d]isoxazol-6-yl)-2-hydroxy-2-((R)-2-methyl-3-oxo-4-(6-(trifluoromethyl)-1,7-naphthyridin-2-yl)morpholin-2-yl)acetamide] | 101
18 | C[C@](O)(C(=O)Nc1cc(Cl)c2c(N)noc2c1)[C@H]1OCCN(c2ccn(-c3ccncc3)n2)C1=O [Example 119, (R)—N-(3-amino-4-chlorobenzo[d]isoxazol-6-yl)-2-hydroxy-2-((R)-3-oxo-4-(1-(pyridin-4-yl)-1H-pyrazol-3-yl)morpholin-2-yl)propanamide] | 224
19 | C[C@](O)(C(=O)Nc1cc(Cl)c2c(N)noc2c1)[C@H]1OCCN(c2ccn(-c3ccnc(C(F)(F)F)c3)n2)C1=O [Example 120, (R)—N-(3-amino-4-chlorobenzo[d]isoxazol-6-yl)-2-hydroxy-2-((R)-3-oxo-4-(1-(2-(trifluoromethyl)pyridin-4-yl)-1H-pyrazol-3-yl)morpholin-2-yl)propanamide] | 1050
20 | C[C@](O)(C(=O)Nc1cc(Cl)c2c(N)noc2c1)[C@H]1OCCN(c2nn(-c3ccnc(C(F)(F)F)c3)cc2F)C1=O [Example 121, (R)—N-(3-amino-4-chlorobenzo[d]isoxazol-6-yl)-2-((R)-4-(4-fluoro-1-(2-(trifluoromethyl)pyridin-4-yl)-1H-pyrazol-3-yl)-3-oxomorpholin-2-yl)-2-hydroxypropanamide] | 193
21 | C[C@](O)(C(=O)Nc1cc(Cl)c2c(N)noc2c1)[C@H]1OCCN(c2ccn(-c3ccnnc3)n2)C1=O [Example 122, (R)—N-(3-amino-4-chlorobenzo[d]isoxazol-6-yl)-2-hydroxy-2-((R)-3-oxo-4-(1-(pyridazin-4-yl)-1H-pyrazol-3-yl)morpholin-2-yl)propanamide] | 129
22 | C[C@](O)(C(=O)Nc1cc(Cl)c2c(N)noc2c1)[C@H]1OCCN(c2nn(-c3ccnnc3)cc2F)C1=O [Example 123, (R)—N-(3-amino-4-chlorobenzo[d]isoxazol-6-yl)-2-((R)-4-(4-fluoro-1-(pyridazin-4-yl)-1H-pyrazol-3-yl)-3-oxomorpholin-2-yl)-2-hydroxypropanamide] | 21.8
23 | C[C@](O)(C(=O)Nc1cc(Cl)c2c(N)noc2c1)[C@H]1OCCN(c2nn(-c3cnnc(C#N)c3)cc2F)C1=O [Example 124, (R)—N-(3-amino-4-chlorobenzo[d]isoxazol-6-yl)-2-((R)-4-(1-(6-cyanopyridazin-4-yl)-4-fluoro-1H-pyrazol-3-yl)-3-oxomorpholin-2-yl)-2-hydroxypropanamide] | 158
24 | COc1cc(-n2cc(F)c(N3CCO[C@H]([C@@](C)(O)C(=O)Nc4cc(Cl)c5c(N)noc5c4)C3=O)n2)cnn1 [Example 125, (R)—N-(3-amino-4-chlorobenzo[d]isoxazol-6-yl)-2-((R)-4-(4-fluoro-1-(6-methoxypyridazin-4-yl)-1H-pyrazol-3-yl)-3-oxomorpholin-2-yl)-2-hydroxypropanamide] | 45
25 | C[C@](O)(C(=O)Nc1cc(Cl)c2c(N)noc2c1)[C@H]1OCCN(c2nn(-c3cnnc(C(F)(F)F)c3)cc2F)C1=O [Example 126, (R)—N-(3-amino-4-chlorobenzo[d]isoxazol-6-yl)-2-((R)-4-(4-fluoro-1-(6-(trifluoromethyl)pyridazin-4-yl)-1H-pyrazol-3-yl)-3-oxomorpholin-2-yl)-2-hydroxypropanamide] | 31.6
26 | C[C@]1([C@@H](O)C(=O)Nc2cc(Cl)c3c(N)noc3c2)OCCN(c2ccn(-c3ccc(S(C)(=O)=O)cc3)n2)C1=O [Example 127, (R)—N-(3-amino-4-chlorobenzo[d]isoxazol-6-yl)-2-hydroxy-2-((R)-2-methyl-4-(1-(4-(methylsulfonyl)phenyl)-1H-pyrazol-3-yl)-3-oxomorpholin-2-yl)acetamide] | 746
27 | C[C@]1([C@@H](O)C(=O)Nc2cc(Cl)c3c(N)noc3c2)OCCN(c2ccn(-c3ccncc3)n2)C1=O [Example 128, (R)—N-(3-amino-4-chlorobenzo[d]isoxazol-6-yl)-2-hydroxy-2-((R)-2-methyl-3-oxo-4-(1-(pyridin-4-yl)-1H-pyrazol-3-yl)morpholin-2-yl)acetamide] | 224
